Data on 14 molecules can be found in patent US20250179103A1, “6-OXODECAHYDROPYRROLO[1,2-A][1,5]DIAZOCINE AND 6-OXODECAHYDRO-4H-PYRROLO[2,1-D][1,5]THIAZOCINE DERIVATIVES AS STAT3 AND STAT6 MODULATORS FOR THE TREATMENT OF CANCER AND INFLAMMATORY CONDITIONS” (Recludix Pharma, Inc., priority 2022, published 2025).

Assay [1] concerns the target T1, Recombinant STAT3 protein (STAT3(G127-I722)) (Homo sapiens, UniProt P40763).
T1 construct: Recombinant STAT3 protein (STAT3(G127-I722))
Briefly: STAT3 Fluorescence Polarization (FP) Assay. The class given is binding. The following applies: STAT3(G127-I722) 25 nM, probe 5-FAM-GpYLPQTV-NH2 2 nM, 45-minute incubation. The essentials:
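STAT3(G127-I722), 25 nM, was mixed with 2 nM 5-FAM-GpYLPQTV-NH2 probe in HEPES pH 7.4 buffer with 1% DMSO and serially diluted compound. FP (mP) was read after 45 min at room temperature. IC50 came from nonlinear regression.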
(In general: Polarisation of emitted light reports the rotation of a fluorescent probe.)

The target in assay [2] is T2, Recombinant STAT6 protein (STAT6(W123-T658)) (Homo sapiens, UniProt P42226).
T2 construct: Recombinant STAT6 protein (STAT6(W123-T658))
T2 sequence (P42226 123-658): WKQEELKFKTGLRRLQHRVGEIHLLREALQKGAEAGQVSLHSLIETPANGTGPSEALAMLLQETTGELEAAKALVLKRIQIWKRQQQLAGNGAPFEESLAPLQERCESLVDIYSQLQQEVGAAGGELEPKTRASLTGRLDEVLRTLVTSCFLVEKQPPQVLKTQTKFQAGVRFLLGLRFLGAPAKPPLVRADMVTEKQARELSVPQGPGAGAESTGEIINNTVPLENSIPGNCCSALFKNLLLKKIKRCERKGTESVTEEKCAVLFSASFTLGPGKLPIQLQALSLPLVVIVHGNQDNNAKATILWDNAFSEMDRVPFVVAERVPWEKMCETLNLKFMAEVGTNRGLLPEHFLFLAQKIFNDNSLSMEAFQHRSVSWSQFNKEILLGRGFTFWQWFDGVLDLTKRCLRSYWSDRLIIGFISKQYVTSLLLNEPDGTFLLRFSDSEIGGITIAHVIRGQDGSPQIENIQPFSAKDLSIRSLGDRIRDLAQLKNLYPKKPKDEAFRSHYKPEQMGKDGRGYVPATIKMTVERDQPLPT
Briefly: STAT6 Fluorescence Polarization (FP) Assay. The following applies: STAT6(W123-T658) 250 nM, probe 5-FAM-ApYKPFQDLI-NH2 2 nM, 45-minute incubation. The class given is binding. An outline of the steps: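 Displacement of a fluorescent phosphotyrosine peptide (5-FAM-ApYKPFQDLI-NH2, 2 nM) from STAT6(W123-T658) (250 nM), 1% DMSO, pH 7.4 HEPES buffer. After 45 min at room temperature, polarization (mP) was plotted versus log compound concentration and fitted by nonlinear regression to give IC50.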

SMILES strings stand for the structures.

T1 sequence (P40763 127-722): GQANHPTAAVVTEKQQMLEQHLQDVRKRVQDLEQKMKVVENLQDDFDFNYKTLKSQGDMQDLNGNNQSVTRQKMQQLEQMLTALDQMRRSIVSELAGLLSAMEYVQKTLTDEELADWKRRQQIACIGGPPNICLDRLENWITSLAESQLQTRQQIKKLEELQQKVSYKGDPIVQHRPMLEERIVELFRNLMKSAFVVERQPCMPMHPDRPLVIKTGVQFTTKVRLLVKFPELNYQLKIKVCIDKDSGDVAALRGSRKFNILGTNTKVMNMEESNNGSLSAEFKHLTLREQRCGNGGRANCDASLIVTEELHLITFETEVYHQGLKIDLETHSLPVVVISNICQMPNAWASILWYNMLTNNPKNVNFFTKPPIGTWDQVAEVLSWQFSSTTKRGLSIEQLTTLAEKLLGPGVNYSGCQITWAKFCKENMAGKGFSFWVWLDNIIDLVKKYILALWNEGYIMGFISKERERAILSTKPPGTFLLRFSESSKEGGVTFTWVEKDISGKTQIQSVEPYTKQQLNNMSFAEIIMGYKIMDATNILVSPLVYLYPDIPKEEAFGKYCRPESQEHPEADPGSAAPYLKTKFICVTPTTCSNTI

As usually defined, the IC50 is the point on the concentration scale where inhibition reaches its midpoint. On to `CC(=O)N1CC[C@H]2CC[C@@H](C(=O)N(C)c3ccccc3)N2C(=O)[C@@H](NC(=O)c2ccc3ccc(C(F)(F)P(=O)(O)O)cc3c2)C1` [Compound 111, ((7-(((5S,8S,10aR)-3-acetyl-8-(methyl(phenyl)carbamoyl)-6-oxodecahydropyrrolo[1,2-a][1,5]diazocin-5-yl)carbamoyl)naphthalen-2-yl)difluoromethyl)phosphonic acid], for which the IC50 is above 10 µM in assay [1] and 0.3 to 3 µM in assay [2].
With `CC(=O)N1CC[C@H]2CC[C@@H](C(=O)N(C)c3ccccc3)N2C(=O)[C@@H](NC(=O)c2ccc3cc(C(F)(F)P(=O)(O)O)ccc3c2)C1` [Compound 112, ((6-(((5S,8S,10aR)-3-acetyl-8-(methyl(phenyl)carbamoyl)-6-oxodecahydropyrrolo[1,2-a][1,5]diazocin-5-yl)carbamoyl)naphthalen-2-yl)difluoromethyl)phosphonic acid], the 50% inhibitory concentration (IC50) in assay [1] was above 10 µM; in assay [2] it was above 30 µM.
On the same counts, the results for `CC(=O)N1CC[C@H]2CC[C@@H](C(=O)N(C)c3ccccc3)N2C(=O)[C@@H](NC(=O)c2ccc3cc(P(=O)(O)O)ccc3c2)C1` [Compound 113, (6-(((5S,8S,10aR)-3-acetyl-8-(methyl(phenyl)carbamoyl)-6-oxodecahydropyrrolo[1,2-a][1,5]diazocin-5-yl)carbamoyl)naphthalen-2-yl)phosphonic acid] are above 10 µM and above 30 µM.
The like results for `CC(=O)N1CC[C@H]2CC[C@@H](C(=O)N(C)c3ccccc3)N2C(=O)[C@@H](NC(=O)c2ccc3ccc(P(=O)(O)O)cc3c2)C1` [Compound 114, (7-(((5S,8S,10aR)-3-acetyl-8-(methyl(phenyl)carbamoyl)-6-oxodecahydropyrrolo[1,2-a][1,5]diazocin-5-yl)carbamoyl)naphthalen-2-yl)phosphonic acid] were, in that order, above 10 µM and above 30 µM.
On the same counts, the results for `CC(=O)N1CC[C@H]2CC[C@@H](C(=O)N(C)c3ccccc3)N2C(=O)[C@@H](NC(=O)c2nc3cc(C(F)(F)P(=O)(O)O)ccc3s2)C1` [Compound 115, ((2-(((5S,8S,10aR)-3-acetyl-8-(methyl(phenyl)carbamoyl)-6-oxodecahydropyrrolo[1,2-a][1,5]diazocin-5-yl)carbamoyl)benzo[d]thiazol-5-yl)difluoromethyl)phosphonic acid] are above 10 µM and 0.3 to 3 µM.
On to `CC(=O)N1CC[C@H]2CC[C@@H](C(=O)N3CCC(C(N)=O)c4cc(-c5ccccc5)ccc43)N2C(=O)[C@@H](NC(=O)c2cc3cc(C(F)(F)P(=O)(O)O)ccc3s2)C1` (stereo partly drawn) [Compound 116, ((2-(((5S,8S,10aR)-3-acetyl-8-(4-carbamoyl-6-phenyl-1,2,3,4-tetrahydroquinoline-1-carbonyl)-6-oxodecahydropyrrolo[1,2-a][1,5]diazocin-5-yl)carbamoyl)benzo[b]thiophen-5-yl)difluoromethyl)phosphonic acid], for which the IC50 in assay [1] was in the range of 0.1 to 1 µM; in assay [2], 0.3 to 3 µM.
On the same counts, the results for `CC(=O)N1CC[C@H]2CC[C@@H](C(=O)N(C)c3ccc(C(C)(C)C)cc3)N2C(=O)[C@@H](NC(=O)c2ccc3ccc(C(F)(F)P(=O)(O)O)cc3c2)C1` [Compound 117, ((7-(((5S,8S,10aR)-3-acetyl-8-((4-(tert-butyl)phenyl)(methyl)carbamoyl)-6-oxodecahydropyrrolo[1,2-a][1,5]diazocin-5-yl)carbamoyl)naphthalen-2-yl)difluoromethyl)phosphonic acid] are above 10 µM and 0.3 to 3 µM.
The like results for `CC(=O)N1CC[C@H]2CC[C@@H](C(=O)N(C)c3ccc4nnccc4c3)N2C(=O)[C@@H](NC(=O)c2ccc3ccc(C(F)(F)P(=O)(O)O)cc3n2)C1` [Compound 118, ((2-(((5S,8S,10aR)-3-acetyl-8-(cinnolin-6-yl(methyl)carbamoyl)-6-oxodecahydropyrrolo[1,2-a][1,5]diazocin-5-yl)carbamoyl)quinolin-7-yl)difluoromethyl)phosphonic acid] were, in that order, above 10 µM and 0.3 to 3 µM.
On the same counts, the results for `CC(=O)N1CC[C@H]2CC[C@@H](C(=O)N(C)c3ccc4nnccc4c3)N2C(=O)[C@@H](NC(=O)c2ccc3cnc(C(F)(F)P(=O)(O)O)cc3c2)C1` [Compound 119, ((6-(((5S,8S,10aR)-3-acetyl-8-(cinnolin-6-yl(methyl)carbamoyl)-6-oxodecahydropyrrolo[1,2-a][1,5]diazocin-5-yl)carbamoyl)isoquinolin-3-yl)difluoromethyl)phosphonic acid] are above 10 µM and 0.3 to 3 µM.
Consider `CC(=O)N1CC[C@H]2CC[C@@H](C(=O)N(C)c3ccc4nnccc4c3)N2C(=O)[C@@H](NC(=O)c2ccc3ccc(C(F)(F)P(=O)(O)O)nc3c2)C1` [Compound 120, ((7-(((5S,8S,10aR)-3-acetyl-8-(cinnolin-6-yl(methyl)carbamoyl)-6-oxodecahydropyrrolo[1,2-a][1,5]diazocin-5-yl)carbamoyl)quinolin-2-yl)difluoromethyl)phosphonic acid], for which the IC50 in assay [1] is above 10 µM; in assay [2] it was 3 to 30 µM.
The like results for `CC(=O)N1CC[C@H]2CC[C@@H](C(=O)Nc3ccc(-c4ccccc4)cc3)N2C(=O)[C@@H](NC(=O)/C=C/c2ccc(C(F)(F)P(=O)(O)O)cc2)C1` [Compound 121, ((4-((E)-3-(((5S,8S,10aR)-8-([1,1′-biphenyl]-4-ylcarbamoyl)-3-acetyl-6-oxodecahydropyrrolo[1,2-a][1,5]diazocin-5-yl)amino)-3-oxoprop-1-en-1-yl)phenyl)difluoromethyl)phosphonic acid] were, in that order, above 10 µM and 3 to 30 µM.
The like results for `CC(=O)N1CC[C@H]2CC[C@@H](C(=O)N3CC(c4cccnc4)C3)N2C(=O)[C@@H](NC(=O)c2cc3cc(C(F)(F)P(=O)(O)O)ccc3s2)C1` [Compound 122, ((2-(((5S,8S,10aR)-3-acetyl-6-oxo-8-(3-(pyridin-3-yl)azetidine-1-carbonyl)decahydropyrrolo[1,2-a][1,5]diazocin-5-yl)carbamoyl)benzo[b]thiophen-5-yl)difluoromethyl)phosphonic acid] were, in that order, at most 0.1 µM and 0.3 to 3 µM.
On the same counts, the results for `CC(=O)N1CC[C@H]2CC[C@@H](C(=O)N(C)c3ccc(C#N)cc3)N2C(=O)[C@@H](NC(=O)c2cc3cc(C(F)(F)P(=O)(O)O)ccc3s2)C1` [Compound 123, ((2-(((5S,8S,10aR)-3-acetyl-8-((4-cyanophenyl)(methyl)carbamoyl)-6-oxodecahydropyrrolo[1,2-a][1,5]diazocin-5-yl)carbamoyl)benzo[b]thiophen-5-yl)difluoromethyl)phosphonic acid] are 1 to 10 µM and 3 to 30 µM.
Take `CC(=O)N1CC[C@H]2CC[C@@H](C(=O)N3C[C@H](c4ccccc4)[C@@H](C#N)C3)N2C(=O)[C@@H](NC(=O)c2cc3cc(C(F)(F)P(=O)(O)O)ccc3s2)C1` [Compound 124, ((2-(((5S,8S,10aR)-3-acetyl-8-((3R,4S)-3-cyano-4-phenylpyrrolidine-1-carbonyl)-6-oxodecahydropyrrolo[1,2-a][1,5]diazocin-5-yl)carbamoyl)benzo[b]thiophen-5-yl)difluoromethyl)phosphonic acid]: the IC50 is 1 to 10 µM in assay [1] and at most 0.3 µM in assay [2].
